Values joined by “and” are separate entries in the source; they are usually repeats but may differ in a detail not shown here. Identical values can stand only once. Inconclusive results and toxic doses are left out.

The test concerns CD2F1 mice, L1210 leukemia ip, survival T/C. In words: NCI In Vivo Anticancer Drug Screen. Data for tumor model L1210 Leukemia (intraperitoneal) in CD2F1 (CDF1) mice. To be noted: higher = longer survival. The gist of the method:
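Implant tumor; dose compound or vehicle; measure endpoint in both groups; report treated divided by control.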

The mark [1] stands for this setting: endpoint: mean survival time, dose: 100.0 mg/kg/injection, schedule: Q01DX001 (ip), vehicle: saline with Tween-80.
Setting [2] is: endpoint: mean survival time, dose: 200.0 mg/kg/injection, schedule: Q01DX001 (ip), vehicle: saline with Tween-80.
Setting [3] is: endpoint: mean survival time, dose: 12.5 mg/kg/injection, schedule: Q01DX009 (ip), vehicle: saline with Tween-80.
Setting [4] is: endpoint: mean survival time, dose: 25.0 mg/kg/injection, schedule: Q01DX009 (ip), vehicle: saline with Tween-80.
The mark [5] stands for this setting: endpoint: mean survival time, dose: 100.0 mg/kg/injection, schedule: Q01DX009 (ip), vehicle: saline with Tween-80.
Where [6] appears, read: endpoint: mean survival time, dose: 200.0 mg/kg/injection, schedule: Q01DX009 (ip), vehicle: saline with Tween-80.
Setting [7] is: endpoint: mean survival time, dose: 400.0 mg/kg/injection, schedule: Q01DX009 (ip), vehicle: saline with Tween-80.
Setting [8] is: endpoint: mean survival time, dose: 100.0 mg/kg/injection, schedule: Q04DX002 (ip), vehicle: saline with Tween-80.
[9] abbreviates: endpoint: mean survival time, dose: 200.0 mg/kg/injection, schedule: Q04DX002 (ip), vehicle: saline with Tween-80.
[10] abbreviates: endpoint: mean survival time, dose: 100.0 mg/kg/injection, schedule: Q04DX003 (ip), vehicle: saline with Tween-80.
Setting [11] is: endpoint: mean survival time, dose: 200.0 mg/kg/injection, schedule: Q04DX003 (ip), vehicle: saline with Tween-80.
Where [12] appears, read: endpoint: mean survival time, dose: 400.0 mg/kg/injection, schedule: Q04DX003 (ip), vehicle: saline with Tween-80.
Setting [13] is: endpoint: mean survival time, dose: 100.0 mg/kg/injection, schedule: Q04DX003 (ip), vehicle: saline.
[14] abbreviates: endpoint: mean survival time, dose: 400.0 mg/kg/injection, schedule: Q01DX001 (ip), vehicle: saline with Tween-80.
Where [15] appears, read: endpoint: mean survival time, dose: 100.0 mg/kg/injection, schedule: Q01DX001 (ip), vehicle: saline.
[16] abbreviates: endpoint: mean survival time, dose: 200.0 mg/kg/injection, schedule: Q01DX001 (ip), vehicle: saline.
Setting [17] is: endpoint: mean survival time, dose: 200.0 mg/kg/injection, schedule: Q04DX003 (ip), vehicle: saline.
The mark [18] stands for this setting: endpoint: mean survival time, dose: 400.0 mg/kg/injection, schedule: Q04DX003 (ip), vehicle: saline.

As for `OC(CI)C(O)C(O)C(O)CI` (stereo not drawn), the T/C (endpoint: mean survival time, dose: 25.0 mg/kg/injection, schedule: Q01DX009 (oral), vehicle: other) is 106 % of control; the T/C (endpoint: mean survival time, dose: 50.0 mg/kg/injection, schedule: Q01DX009 (oral), vehicle: other) is 106 % of control; the T/C (endpoint: mean survival time, dose: 100.0 mg/kg/injection, schedule: Q01DX009 (oral), vehicle: other) is 95 % of control; the T/C (endpoint: mean survival time, dose: 200.0 mg/kg/injection, schedule: Q01DX009 (oral), vehicle: other) is 107 % of control; the T/C (endpoint: mean survival time, dose: 400.0 mg/kg/injection, schedule: Q01DX009 (oral), vehicle: other) was 107 % of control; the T/C (endpoint: mean survival time, dose: 800.0 mg/kg/injection, schedule: Q01DX009 (oral), vehicle: other) is 124 % of control.

As to `CN(C)CCCc1c2ccccc2nc2ccc(Cl)cc12`, the T/C is, setting by setting: (endpoint: mean survival time, dose: 12.0 mg/kg/injection, schedule: Q04DX003 (ip), vehicle: saline) 102 % of control; (endpoint: mean survival time, dose: 25.0 mg/kg/injection, schedule: Q04DX003 (ip), vehicle: saline) 94 % of control; (endpoint: mean survival time, dose: 50.0 mg/kg/injection, schedule: Q04DX003 (ip), vehicle: saline) 98 % of control.

`COC(=O)/C(Br)=C/C(C)=O`: the T/C is, setting by setting: under setting [1], 107 % of control; under setting [2], 95 % of control.

Take `O=C(NC1CCCCC1)OCc1c(COC(=O)NC2CCCCC2)c(-c2ccc(Cl)c(Cl)c2)n2c1CCC2`: the T/C under setting [3] is 119 % of control and 112 % of control; the T/C under setting [4] is 112 % of control; the T/C under setting [5] is 122 % of control; the T/C under setting [6] was 151 % of control and 157 % of control; the T/C under setting [7] was 121 % of control and 97 % of control.

Regarding `O=C(Oc1ccn(C2OC(CO)C(O)C2O)c(=O)c1)C12CC3CC(CC(C3)C1)C2` (stereo not drawn), the T/C is 153 % of control (endpoint: median survival time, dose: 20.0 mg/kg/injection, schedule: Q01DX009 (ip), vehicle: saline + Tween-80 + alcohol); 170 % of control (endpoint: median survival time, dose: 30.0 mg/kg/injection, schedule: Q01DX009 (ip), vehicle: saline + Tween-80 + alcohol); 158 % of control (endpoint: median survival time, dose: 45.0 mg/kg/injection, schedule: Q01DX009 (ip), vehicle: saline + Tween-80 + alcohol).

For `CN1CC2C3CCC(C3)C2(C)C1O` (stereo not drawn), the T/C (endpoint: mean survival time, dose: 50.0 mg/kg/injection, schedule: Q04DX002 (ip), vehicle: saline with Tween-80) was 103 % of control; the T/C under setting [8] is 103 % of control; the T/C under setting [9] is 87 % of control.

Take `Nc1cc(C(F)(F)F)ccc1[N+](=O)[O-]`: the T/C reads like this: under setting [10], 100 % of control; under setting [11], 100 % of control; under setting [12], 104 % of control.

For the molecule `C=C1C(=O)OC2CCN3CC=C(COC(=O)C(C)(O)C4(CO4)C1C)C23` (stereo not drawn), for the setting “endpoint: mean survival time, dose: 75.0 mg/kg/injection, schedule: Q01DX001 (ip), vehicle: saline”, the T/C was 107 % of control.

Consider `COc1cc(C(=O)NNC(=O)c2ccc(Cl)cc2)cc(OC)c1OC`, for which the T/C runs as follows: under setting [5], 94 % of control; under setting [6], 86 % of control.

As for `O=[N+]([O-])c1ccc(C(O)(c2ccc([N+](=O)[O-])cc2)c2ccc([N+](=O)[O-])cc2)cc1`, the T/C runs as follows: under setting [5], 96 % of control; under setting [10], 98 % of control; under setting [6], 95 % of control; under setting [11], 97 % of control; under setting [7], 96 % of control; under setting [12], 97 % of control.

In the case of `NC(=O)C1(Cl)CC2C=CC1C2` (stereo not drawn), the T/C under setting [13] was 94 % of control.

Regarding `O=C1C(O)=C(c2ccccc2C(=O)O)C(=O)C(O)=C1c1ccccc1C(=O)O`, under setting [5], the T/C is 92 % of control.

Take `CC(C[P+](c1ccccc1)(c1ccccc1)c1ccccc1)C(O)(C(=O)c1ccccc1)c1ccccc1` (stereo not drawn): the T/C runs as follows: (endpoint: mean survival time, dose: 6.25 mg/kg/injection, schedule: Q01DX001 (ip), vehicle: saline with Tween-80) 108 % of control; (endpoint: mean survival time, dose: 6.25 mg/kg/injection, schedule: Q01DX009 (ip), vehicle: saline with Tween-80) 95 % of control; (endpoint: mean survival time, dose: 12.5 mg/kg/injection, schedule: Q01DX001 (ip), vehicle: saline with Tween-80) 103 % of control; under setting [3], 110 % of control; (endpoint: mean survival time, dose: 25.0 mg/kg/injection, schedule: Q01DX001 (ip), vehicle: saline with Tween-80) 108 % of control.

Take `CC(=O)CCS(=O)(=O)O`: the T/C runs as follows: under setting [1], 92 % of control; under setting [2], 95 % of control; under setting [14], 88 % of control.

For `c1ccc(C[N+]23CCC(CC2)CC3)cc1`, the T/C runs as follows: (endpoint: mean survival time, dose: 6.25 mg/kg/injection, schedule: Q04DX003 (ip), vehicle: saline) 104 % of control; (endpoint: mean survival time, dose: 12.5 mg/kg/injection, schedule: Q04DX003 (ip), vehicle: saline) 103 % of control.

Take `c1ccc2c(-c3nn[nH]n3)nccc2c1`: the T/C by setting is: under setting [15], 106 % of control; under setting [16], 113 % of control.

In the case of `O=C(NNCN1C(=O)c2ccccc2C1=O)c1ccccc1`, the T/C runs as follows: under setting [15], 98 % of control; under setting [13], 100 % of control; under setting [16], 104 % of control; under setting [17], 100 % of control; (endpoint: mean survival time, dose: 400.0 mg/kg/injection, schedule: Q01DX001 (ip), vehicle: saline) 100 % of control; under setting [18], 103 % of control.

In the case of `CCCCCCCCCC(=O)NC(=S)Nc1ccc(Cl)cc1`, the T/C is 95 % of control and 96 % of control under setting [4]; 98 % of control and 101 % of control (endpoint: mean survival time, dose: 50.0 mg/kg/injection, schedule: Q01DX009 (ip), vehicle: saline with Tween-80); 94 % of control and 95 % of control under setting [1]; 100 % of control and 104 % of control under setting [8]; 92 % of control and 103 % of control under setting [2]; 92 % of control and 93 % of control under setting [9]. Besides, the T/C was 100 % of control and 103 % of control under setting [14]; 88 % of control and 90 % of control (endpoint: mean survival time, dose: 400.0 mg/kg/injection, schedule: Q04DX002 (ip), vehicle: saline with Tween-80).

On to `O=C1C=C(NCCO)C(=O)C=C1NCCO`, for which the T/C was 98 % of control under setting [1], 90 % of control under setting [2] and 95 % of control under setting [14].

Consider `CNC(=O)NC1C(CO)OC2OC(C)(C)OC21` (stereo not drawn), for which the T/C runs as follows: under setting [13], 96 % of control; under setting [17], 94 % of control; under setting [18], 96 % of control.

(Values after PubChem BioAssay AID256 (DTP/NCI, 2004).)
